pEC50: −log10 of the molar value. Counter-ions that a name gives are not always drawn.
System: phospho-akt (Thr308) in PC-3 cells
Experiment: Inhibition of phospho-akt (Thr308) in PC-3 cells, MSD phospho-akt 308 ELISA kit
Format: cell-based
Conditions: Homo sapiens; inhibition of P308 Akt in PC-3 cells using MSD, 2 hours, no serum; read-out: EC50
Method: PC-3 cells were harvested by trypsin and counted. Cells were plated in coated 96-well flat bottom plates (plate 15,000 cells/well in 100 ul growth media (10% FBS, 1× pen-strep) an place in an incubator overnight.
Subject inhibitors were stocked at 50 mM, then diluted to 30 mM (4.8 μl cpd plus […] DMSO) in 100% DMSO. Three-fold dilutions were performed from 30 mM stock. (4 μl into 8 ul 100% DMSO). Aliquots of 1.0 μl of inhibitor solution were transferred into SF Medium (using deep well block).
Control wells were prepared as follows. For DMSO high controls, 1.0 μl of 100% DMSO was added into 1.0 ml SF. For low controls for PC-3 cells, 5 μM of Wortmannin (10 μl of 1 mM Wortmannin stock was added into 2 ml SF Medium. The supernatant media was removed and the plate was blotted. 100 μl of controls/media or compound/media were added to cells and placed in incubator for 2 hours. The supernatant media was removed and the plate was blotted. 55 μl of the MSD complete lysis buffer was added (10 mls Tris Lysis buffer, 200 ul protease inhibitor, 100 ul phosphatase inhibitor 1, and 100 ul phosphatase inhibitor II). The plate was placed on a plate shaker for 60 mins at 4 deg.
MSD plates were blocked for 1 hour by adding 150 μl of Blocking Solution (3% BSA) to each well. The MSD plates were washed 4× with TBST, and 50 μl lysates were transferred to MSD plate and place on plate shaker shake at 4 degrees O/N, light shaking (speed 3.5). The plate was washed 4× with TBST.
25 μl of Ab detection solution was added to each well. The plate was sealed and incubated 1 hr RT, light shaking (speed 3.5). The plate was washed 4 times with TBST. 150 μl of Read Buffer was added (5 mls 4×MSD Read Buffer+15 mls water). Finally the plate was read immediately on the MSD plate reader.

pEC50	SMILES
> 6.00	Nc1ncc(-c2ccc(CNc3ncc(C(F)(F)F)cc3C(=O)Nc3ccc(F)cc3)cc2)nc1CO [Example 242, 2-[4-(5-Amino-6-hydroxy-methyl-pyrazin-2-yl)-benzylamino]-N-(4-fluoro-phenyl)-5-trifluoromethyl-nicotinamide]
> 6.00	C[C@H](NC(=O)c1cc(C#N)cnc1NCc1ccc(-c2cnc3[nH]c(=O)[nH]c3c2)c(F)c1)c1ccc(F)cc1 [Example 127, (S)-5-cyano-2-(3-fluoro-4-(2-oxo-2,3-dihydro-1H-imidazo[4,5-b]pyridin-6-yl)benzyl-amino)-N-(1-(4-fluorophenyl)ethyl) nicotinamide]
> 6.00	C[C@H](NC(=O)c1cc(C#N)cnc1NCc1ccc(-c2cnc3[nH]nc(N)c3c2)cc1F)c1ccc(F)cc1 [Example 407, 2-[4-(3-Amino-1H-pyrazolo [3,4-b]pyridin-5-yl)-2-fluoro-benzylamino]-5-cyano-N-[(S)-1-(4-fluoro-phenyl)-ethyl]-nicotinamide]
5.00 to 6.00	N#Cc1cc(F)ccc1NC(=O)c1cc(C(F)(F)F)cnc1NCc1ccc(-c2cnc3[nH]nc(N)c3c2)cc1 [Example 418, 2-(4-(3-amino-1H-pyrazolo [3,4-b]pyridin-5-yl)benzylamino)-N-(2-cyano-4-fluorophenyl)-5-(trifluoromethyl)nicotinamide]
> 6.00	C[C@H](NC(=O)c1nc(C(F)(F)F)cnc1NCc1ccc(-c2cnc3[nH]nc(N)c3c2)cc1)c1ccc(F)c(F)c1 [Example 428, (S)-3-(4-(3-amino-1H-pyrazolo[3,4-b]pyridin-5-yl)benzylamino)-N-(1-(3,4-difluorophenyl)ethyl)-6-(trifluoromethyl) pyrazine-2-carboxamide]
> 6.00	N#Cc1cnc(NCc2ccc(-c3cnc4[nH]ncc4c3)cc2)c(C(=O)NCc2ccc(F)c(F)c2)c1 [Example 396, 5-Cyano-N-(3,4-difluoro-benzyl)-2-[4-(1H-pyrazolo[3,4-b]pyridin-5-yl)-benzylamino]-nicotinamide]
5.00 to 6.00	C[C@H](NC(=O)c1nc(C(F)(F)F)cnc1N[C@H](C)c1ccc(-c2cnc3[nH]nc(N)c3c2)cc1)c1ccc(F)c(F)c1 [Example 427, 3-((R)-1-(4-(3-amino-1H-pyrazolo[3,4-b]pyridin-5-yl)phenyl)ethylamino)-N-((S)-1-(3,4-difluorophenyl)ethyl)-6-(trifluoromethyl) pyrazine-2-carboxamide]
> 6.00	C[C@H](NC(=O)c1cc(C#N)cnc1N[C@H](C)c1ccc(-c2cnc3[nH]nc(N)c3c2)nc1)c1ccc(F)cc1 [Example 416, 2-{(R)-1-[6-(3-Amino-1H-pyrazolo[3,4-b]pyridin-5-yl)-pyridin-3-yl]-ethylamino}-5-cyano-N-[(S)-1-(4-fluoro-phenyl)-ethyl]-nicotinamide]
> 6.00	C[C@H](NC(=O)c1nc(C#N)cnc1NCC#Cc1ccc2nc(N)ncc2c1)c1ccc(F)c(F)c1 [Example 258, (S)-3-(3-(2-aminoquinazolin-6-yl)prop-2-ynylamino)-6-cyano-N-(1-(3,4-difluorophenyl)ethyl) pyrazine-2-carboxamide]
> 6.00	C[C@H](NC(=O)c1nc(C#N)cnc1N[C@H](C)c1ccc(-c2cnc3[nH]nc(N)c3c2)nc1)c1ccc(F)c(F)c1 [Example 415, 3-{(R)-1-[6-(3-Amino-1H-pyrazolo[3,4-b]pyridin-5-yl)-pyridin-3-yl]-ethylamino}-6-cyano-pyrazine-2-carboxylic acid [(S)-1-(3,4-difluoro-phenyl)-ethyl]-amide]
> 6.00	C[C@H](NC(=O)c1cc(C#N)cnc1NCc1ccc(-c2cnc3[nH]c(=O)n(C)c3c2)cc1)c1ccc(F)cc1 [Example 140, (S)-5-cyano-N-(1-(4-fluorophenyl)ethyl)-2-(4-(1-methyl-2-oxo-2,3-dihydro-1H-imidazo [4,5-b]pyridin-6-yl)benzylamino)nicotinamide]
> 6.00	C[C@H](NC(=O)c1nc(C#N)cnc1NCc1ccc(-c2cnc(N)c(CO)n2)cc1)c1ccc(F)c(F)c1 [Example 241, 3-[4-(5-Amino-6-hydroxy-methyl-pyrazin-2-yl)-benzylamino]-6-cyano-pyrazine-2-carboxylic acid [(S)-1-(3,4-difluoro-phenyl)-ethyl]-amide]
> 6.00	C[C@H](NC(=O)c1cc(C#N)cnc1NCC#Cc1ccc2nc(N)ncc2c1)c1ccc(F)cc1 [Example 257, (S)-2-(3-(2-aminoquinazolin-6-yl)prop-2-ynylamino)-5-cyano-N-(1-(4-fluorophenyl)ethyl)nicotinamide]
< 5.00	Cc1nc(N)cnc1-c1ccc(CNc2ncc(C#N)cc2C(=O)N[C@@H](C)c2ccc(F)cc2)cc1 [Example 107, (S)-2-(4-(5-amino-3-methylpyrazin-2-yl)benzylamino)-5-cyano-N-(1-(4-fluorophenyl)ethyl)nicotinamide]
5.00 to 6.00	C[C@H](NC(=O)c1cc(C#N)cnc1NCc1ccc(-c2cnc3[nH]nc(N)c3c2)cc1Cl)c1ccc(F)cc1 [Example 406, 2-[4-(3-Amino-1H-pyrazolo [3,4-b]pyridin-5-yl)-2-chloro-benzylamino]-5-cyano-N-[(S)-1-(4-fluoro-phenyl)-ethyl]-nicotinamide]

Same assay, conditions: Homo sapiens; inhibition of P308 Akt in PC-3 cells, 2 hours, no serum, MSD; read-out: EC50

pEC50	SMILES
5.00 to 6.00	C[C@H](NC(=O)c1cccnc1NCc1ccc(-c2ccc3ncnc(NCCO)c3c2)s1)c1ccc(F)cc1 [Example 2.14, (S)-N-(1-(4-fluorophenyl)ethyl)-2-(((5-(4-(2-hydroxyethylamino)quinazolin-6-yl)thiophen-2-yl)methyl)amino)nicotinamide]
5.00 to 6.00	Nc1ncnc2ccc(-c3ccc(CNc4ncccc4C(=O)NCc4cncc(F)c4)s3)cc12 [Example 3.65, 2-({[5-(4-aminoquinazolin-6-yl)thiophen-2-yl]methyl}amino)-N-[(5-fluoropyridin-3-yl)methyl] pyridine-3-carboxamide (TFA salt)]
> 6.00	CCc1cnc(NCc2ccc(-c3ccc4ncnc(N)c4c3)s2)c(C(=O)NCc2ccc(F)c(F)c2)c1 [Ex. 8.11, 2-({[5-(4-aminoquinazolin-6-yl)thiophen-2-yl]methyl}amino)-N-(3,4-difluorobenzyl)-5-ethylpyridine-3-carboxamide]
< 5.00	C[C@H](NC(=O)c1cccnc1NCc1ccc(-c2ccc3nc(N)sc3c2)s1)c1ccc(F)cc1 [Example 2.22, (S)-2-(((5-(2-aminobenzo[d]thiazol-6-yl)thiophen-2-yl)methyl)amino)-N-(1-(4-fluorophenyl)ethyl) nicotinamide]
< 5.00	Nc1ncnc2ccc(-c3ccc(CNc4ncc(Br)cc4S(=O)(=O)NCc4ccc(F)c(F)c4)s3)cc12 [Example 20.1, 2-(((5-(4-aminoquinazolin-6-yl)thiophen-2-yl)methyl)amino)-5-bromo-N-(3,4-difluorobenzyl)pyridine-3-sulfonamide]
< 5.00	Cc1ccc(NC(=O)c2cccnc2NCc2ccc(-c3ccc4ncnc(N)c4c3)s2)cc1F [Example 3.50, 2-({[5-(4-aminoquinazolin-6-yl)thiophen-2-yl]methyl}amino)-N-(3-fluoro-4-methylphenyl) pyridine-3-carboxamide (TFA salt)]
< 5.00	C[C@H](NC(=O)c1cccnc1NCc1ccc(-c2cc3c(cn2)ncn3C)s1)c1ccc(F)cc1 [Example 2.6, (S)-N-(1-(4-fluorophenyl)ethyl)-2-(((5-(1-methyl-1H-imidazo [4,5-c]pyridin-6-yl)thiophen-2-yl)methyl)amino)nicotinamide]
5.00 to 6.00	COCCNC(=O)c1cccnc1NCc1ccc(-c2ccc3ncnc(N)c3c2)s1 [Example 3.35, 2-({[5-(4-aminoquinazolin-6-yl)thiophen-2-yl]methyl}amino)-N-(2-methoxyethyl)pyridine-3-carboxamide (TFA salt)]

From patent publication US10030016B2 (Sunesis Pharmaceuticals, Inc., priority 2009, dated 2018)
